≈ marks a conversion by molar mass, not a printed value.
Experiments:
tobacco cutworm = test: whole plant or invertebrate; format: in vivo; settings: for LC50: 48 h, read-out: LC50 (median lethal concentration); for Relative Efficacy (reference compound: 100): from LC50, tobacco cutworm, reference = racemate with same X
Excerpt: (§1) 10 parts of each of the compounds of this invention, (1), (2), (3), (4) and (5) was mixed with 15 parts of Sorpol 3005x (a registered trademark of Toho Chemical Co., Ltd.) and 75 parts of xylene, and the mixture was thoroughly stirred to provide a 10% emulsifiable concentrate.
(§2) In the following test examples, the "racemate" (conventional product) of each of the compounds of the formula (I) was formulated in the same procedures as in each test example and then used as a reference compound.
Each of the emulsifiable concentrates prepared from the compounds of this invention, (1), (2), (3), (4) and (5) in the procedures described in Formulation Example 1 was diluted with water to a predetermined concentration, and a sticker containing 20% of an alkylphenol polyethylene glycol ether and 12% of a salt of lignin sulfonic acid was added to the solution in an amount of 1 ml per 3,000 ml of the solution. […] Ten 3rd-instar larvae of tobacco cutworm were further immersed in each solution for 10 seconds. The leaves and cutworms were air-dried and placed in each plastic cup having a diameter of 10 cm and a height of 4 cm. 48 hours later, the alive and dead was evaluated to obtain the LC50 (median lethal concentration) (ppm).

[1] = system: female adult CSMA-strain houseflies; test: Test Example 2: topical application to thorax, mortality after 24 hours; format: in vivo, housefly; settings: for Relative Efficacy (reference compound: 100): from LD50, housefly, reference = racemate with same X; for LD50 (median lethal dose): topical, 0.5 μl acetone solution to thorax, 24 hours
Description: as §2
The compounds of this invention, (1), (2), (3), (4) and (5) were diluted with acetone to a predetermined concentration, and 0.5 μl of each solution was topically applied to thorax of female adult CSMA-strain houseflies with a microsyringe. The flies were placed in a plastic cup having a diameter of 12 cm containing therein cotton absorbent impregnated with 3% sugar water. 24 hours later, the alive and dead was evaluated to determine the LD50 (median lethal dose) (μg/insect).

[2] = system: adult green rice leafhoppers; test: Test Example 3: dust applied to rice seedlings, mortality after 24 hours; format: in vivo, green rice leafhopper; settings: 0.5% dust, 2 kg/10 ares, 200 mmHg
Description: 0.5 part of each of the compounds of this invention, (1), (2), (3), (4) and (5) was dissolved in 20 parts of acetone. To the solution was added 99.5 parts of 300 mesh clay, and the mixture was thoroughly stirred. The acetone was distilled off to provide a 0.5% dust.
The dusts prepared from the compounds of this invention, (1), (2), (3), (4) and (5) in the procedures described in Formulation Example 2 were applied to rice seedlings planted in each 3 inch pot and 20 days old after seeding. A bell-jar duster was used to apply each dust at a pressure of 200 mmHg at a rate of 2 kg/10 ares. After the treatment, each pot was enclosed with a metal screen cage in which about 30 adult green rice leafhoppers were released.

carmine mites = test: Test Example 4: emulsifiable concentrate applied to mite-infested potted kidney beans; format: in vivo, carmine mite; settings: 10% emulsifiable concentrate diluted 500-fold, 10 ml/pot; 10 days
Description: as §1
10 to 15 female adult carmine mites were placed on each leaf of potted kidney beans (2-leaf stage) 9 days old after seeding. After standing in a constant temperature room at 27° C. for a week, a lot of mites in various growth stages were observed on the beans. Each of the emulsifiable concentrates prepared from the compounds of this invention (1) and (2) in the procedures described in Formulation Example 1 was diluted 500-fold with water and applied to the beans on a turntable at a rate of 10 ml/pot.

[3] = system: harmful insects and/or mites; test: Insecticidal and/or acaricidal activity of optical isomers (general statement); format: in vivo; settings: Aα-isomer, X = F versus other halogens

SMILES: CC(C)[C@H](C(=O)O[C@H](C#N)c1cccc(Oc2ccc(Br)cc2)c1)c1ccc(Cl)cc1 [Compound (5)]
- LC50 (tobacco cutworm): 4.2 µg/mL (≈ 8.42 µM)
- Relative Efficacy (reference compound: 100) (tobacco cutworm): 476
- Relative Efficacy (reference compound: 100) [1]: 444
- LD50 (median lethal dose) [1]: 0.018 μg/insect
- alive and dead evaluation of leafhoppers [2]: completely killed

SMILES: CC(C)[C@H](C(=O)O[C@H](C#N)c1cccc(Oc2ccc(Cl)cc2)c1)c1ccc(Cl)cc1 [Compound (3)]
- LC50 (tobacco cutworm): 3.9 µg/mL (≈ 8.58 µM)
- Relative Efficacy (reference compound: 100) (tobacco cutworm): 390
- Relative Efficacy (reference compound: 100) [1]: 388
- LD50 (median lethal dose) [1]: 0.016 μg/insect
- alive and dead evaluation of leafhoppers [2]: completely killed

SMILES: CC(C)C(C(=O)OC(C#N)c1cccc(Oc2ccc(F)cc2)c1)c1ccc(Cl)cc1 (racemic) [Reference Compound (a), reference compound]
- LC50 (tobacco cutworm): 5 µg/mL (≈ 11.4 µM)
- Relative Efficacy (reference compound: 100) (tobacco cutworm): 100
- Relative Efficacy (reference compound: 100) [1]: 100
- LD50 (median lethal dose) [1]: 0.041 μg/insect

SMILES: CC(C)[C@H](C(=O)OC(C#N)c1cccc(Oc2ccc(F)cc2)c1)c1ccc(Cl)cc1 (stereo partly shown) [Compound (1)]
- LC50 (tobacco cutworm): 2.3 µg/mL (≈ 5.25 µM)
- Relative Efficacy (reference compound: 100) (tobacco cutworm): 217
- Relative Efficacy (reference compound: 100) [1]: 216
- LD50 (median lethal dose) [1]: 0.019 μg/insect
- alive and dead evaluation of leafhoppers [2]: completely killed
- damage to mite-released kidney beans (carmine mites): little damaged

SMILES: CC(C)[C@H](C(=O)O[C@H](C#N)c1cccc(Oc2ccc(F)cc2)c1)c1ccc(Cl)cc1 [Compound (2)]
- activity compared with other halogen-substituted compounds [3]: stronger activity than other halogen-substituted compounds
- LC50 (tobacco cutworm): 1.2 µg/mL (≈ 2.74 µM)
- Relative Efficacy (reference compound: 100) (tobacco cutworm): 417
- Relative Efficacy (reference compound: 100) [1]: 410
- LD50 (median lethal dose) [1]: 0.010 μg/insect
- alive and dead evaluation of leafhoppers [2]: completely killed
- damage to mite-released kidney beans (carmine mites): little damaged

SMILES: CC(C)[C@H](C(=O)OC(C#N)c1cccc(Oc2ccc(Br)cc2)c1)c1ccc(Cl)cc1 (stereo partly shown) [Compound (4)]
- LC50 (tobacco cutworm): 9.5 µg/mL (≈ 19 µM)
- Relative Efficacy (reference compound: 100) (tobacco cutworm): 211
- Relative Efficacy (reference compound: 100) [1]: 229
- LD50 (median lethal dose) [1]: 0.035 μg/insect
- alive and dead evaluation of leafhoppers [2]: completely killed

SMILES: CC(C)C(C(=O)OC(C#N)c1cccc(Oc2ccc(Cl)cc2)c1)c1ccc(Cl)cc1 (racemic) [(b), reference compound]
- LC50 (tobacco cutworm): 15.2 µg/mL (≈ 33.5 µM)
- Relative Efficacy (reference compound: 100) (tobacco cutworm): 100
- Relative Efficacy (reference compound: 100) [1]: 100
- LD50 (median lethal dose) [1]: 0.062 μg/insect

SMILES: CC(C)C(C(=O)OC(C#N)c1cccc(Oc2ccc(Br)cc2)c1)c1ccc(Cl)cc1 (racemic) [(c), reference compound]
- LC50 (tobacco cutworm): 20 µg/mL (≈ 40.1 µM)
- Relative Efficacy (reference compound: 100) (tobacco cutworm): 100
- Relative Efficacy (reference compound: 100) [1]: 100
- LD50 (median lethal dose) [1]: 0.080 μg/insect

— patent publication US4293504A, “Process for preparing optically active α-cyano-3-(4-halogenophenoxy)-benzyl 2-(4-chlorophenyl)isovalerate” (Sumitomo Chemical Company, Limited, priority 1979, dated 1981)
